Data taken from patent US12582607B2, “Implantable medical devices for extended release of therapeutic agents” (Nano Precision Medical, Inc., priority 2014, dated 2026).

Assays:
[1] = In vitro release of stabilizers from implantable devices and disassembly of the devices (Contemplated Examples); format: physicochemical; settings: for pH maintained inside device: disassembly of devices at 2 months, 26 mM bis-tris buffer, 154 mM NaCl; for pH maintained inside device / duration for which stabilizer level (pH or concentration) is maintained in device: 37° C.; for release rate profile of stabilizer out of device through nanoporous membrane: in vitro testing, reverse phase HPLC; for duration for which stabilizer level (pH or concentration) is maintained in device: in vitro
Description: In the examples below the devices that are used include titanium capsules of approximately 25 mm length and 2.25 mm diameter. A titanium substrate with a titanium oxide nanoporous membrane is welded to one end of the device. […] A silicone septum is located at the other end of the device. Extended-release configurations of stabilizers, prepared as described further below, are incorporated into the reservoirs before final attachment of the membrane and septum on the device. A formulation solvent is filled into the device as per methods in PCT/US2021/019559. Briefly, the formulation solvent is loaded into a filler apparatus with a hollow needle to pierce the septum. A vacuum is applied to the membrane of the device to reduce the pressure inside the reservoir, and the formulation is injected through the septum into the reservoir through the needle. The durability of the presence of stabilizers inside devices of the disclosure may be tested by measuring release of the stabilizers from the devices in vitro. In vitro testing is performed by submerging the devices in 3 ml of a 26 mM bis-tris buffer, 154 mM NaCl on a shaker plate at 37° C. and measuring the amounts of stabilizer released at regular intervals by reverse phase HPLC.

[2] = cited from earlier work
[3] = Forced degradation study of exenatide with and without PLGA in titanium reservoirs with nanotube membrane; purity of released exenatide by HPLC; format: physicochemical; settings: 37 C, devices in PBS pH 7.4 with full access to air; for Exenatide purity over time (% purity), 7 days: day 7; for Exenatide purity over time (% purity), 14 days: day 14; for Exenatide purity over time (% purity), 28 days: day 28; for Exenatide purity over time (% purity), 35 days: day 35; for Exenatide purity over time (% purity), 42 days: day 42; for Exenatide purity over time (% purity), 56 days: day 56
Procedure: To avoid confounding factors, no other stabilizers were used in the study.
The devices were incubated in phosphate buffered saline (pH 7.4) under full access to air (oxygen).

O=C(O)c1ccccc1 [benzoic acid]
pH maintained inside device [1]: below 6
release rate profile of stabilizer out of device through nanoporous membrane [1]: declining with approximately the square root of time
duration for which stabilizer level (pH or concentration) is maintained in device [1]: at least 2 months

Cc1cc(C(C)(C)C)c(O)c(C(C)(C)C)c1 [butylated hydroxytoluene]
reported solubility in water [2]: about 1 ppm

[H]/N=C(\N/C(=N/[H])NCCCCCCNC(=N)NC(=N)Nc1ccc(Cl)cc1)Nc1ccc(Cl)cc1 [chlorhexidine, Chlorhexidine]
pH maintained inside device [1]: above 8
release rate profile of stabilizer out of device through nanoporous membrane [1]: declining with approximately the square root of time
duration for which stabilizer level (pH or concentration) is maintained in device [1]: at least 2 months

Oc1ccc(O)cc1 [hydroquinone, Hydroquinone]
stabilizer concentration maintained in device ([1]; disassembly of devices at 4 months): at least 0.05%
release rate profile of stabilizer out of device through nanoporous membrane [1]: approximately constant rate
duration for which stabilizer level (pH or concentration) is maintained in device [1]: at least 4 months

CCCOC(=O)c1cc(O)c(O)c(O)c1 [propyl gallate]
stabilizer concentration maintained in device ([1]; disassembly of devices at 3 months): at least 0.05%
release rate profile of stabilizer out of device through nanoporous membrane [1]: declining with approximately the square root of time
duration for which stabilizer level (pH or concentration) is maintained in device [1]: at least 3 months

Exenatide only (Irradiated): E-beam irradiated (25k Gray) exenatide solution 200 mg/ml, no PLGA
Exenatide purity over time (% purity), 7 days [3]: 96 % purity
Exenatide purity over time (% purity), 14 days [3]: 91 % purity
Exenatide purity over time (% purity), 28 days [3]: 82 % purity
Exenatide purity over time (% purity), 35 days [3]: 75 % purity
Exenatide purity over time (% purity), 42 days [3]: 66 % purity
Exenatide purity over time (% purity), 56 days [3]: 51 % purity

Exenatide only: 20% (w/v) exenatide solution in Water For Injection with 0.04% NaN3, no PLGA, non-irradiated
Exenatide purity over time (% purity), 7 days [3]: 99 % purity
Exenatide purity over time (% purity), 14 days [3]: 89 % purity
Exenatide purity over time (% purity), 28 days [3]: 87 % purity
Exenatide purity over time (% purity), 35 days [3]: 82 % purity
Exenatide purity over time (% purity), 42 days [3]: 72 % purity
Exenatide purity over time (% purity), 56 days [3]: 62 % purity
